One assay concerns the target TEAD2 (Homo sapiens, UniProt Q15562). The assay can be described thus: TEAD lipid assay (Lipid FP, Bodipy-C16 probe displacement). The note with it: fluorescence polarization, His-tagged TEAD, 60 minutes incubation. Format: binding. As to the method: (§1) A TEAD lipid assay was done according to the following method. His-tagged TEAD proteins were pre-incubated with a Bodipy-C16 FP probe (Life Technologies Cat #D3821) for 30 minutes at room temperature to pre-form TEAD-probe complex. […] Duplicate 10 point dose response curves were generated for each test compound. The potency of compounds as TEAD lipid pocket binders was determined by IC50 value generated using a non-linear 4 parameter curve fit.
Background: Polarisation of emitted light reports the rotation of a fluorescent probe.

The target in a further assay is TEAD3 (Homo sapiens, UniProt Q99594). The description is as above. The conditions noted are these: fluorescence polarization, His-tagged TEAD, 60 minutes incubation. It is filed as binding. As for the experimental part: as §1
TEAD3, sequence (Q99594 whole entry, species assumed): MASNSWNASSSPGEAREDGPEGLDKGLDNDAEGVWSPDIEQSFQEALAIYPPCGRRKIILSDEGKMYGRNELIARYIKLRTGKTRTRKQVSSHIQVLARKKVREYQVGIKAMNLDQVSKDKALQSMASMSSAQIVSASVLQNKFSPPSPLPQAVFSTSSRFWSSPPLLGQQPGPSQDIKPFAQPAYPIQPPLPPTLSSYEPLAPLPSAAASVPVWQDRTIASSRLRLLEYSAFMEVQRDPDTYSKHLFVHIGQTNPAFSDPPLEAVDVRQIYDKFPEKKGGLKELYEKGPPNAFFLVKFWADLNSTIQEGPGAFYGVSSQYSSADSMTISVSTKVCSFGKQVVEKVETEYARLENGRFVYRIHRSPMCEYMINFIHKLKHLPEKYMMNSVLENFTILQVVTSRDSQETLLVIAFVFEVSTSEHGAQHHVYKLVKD

TEAD2, sequence (Q15562 whole entry, species assumed): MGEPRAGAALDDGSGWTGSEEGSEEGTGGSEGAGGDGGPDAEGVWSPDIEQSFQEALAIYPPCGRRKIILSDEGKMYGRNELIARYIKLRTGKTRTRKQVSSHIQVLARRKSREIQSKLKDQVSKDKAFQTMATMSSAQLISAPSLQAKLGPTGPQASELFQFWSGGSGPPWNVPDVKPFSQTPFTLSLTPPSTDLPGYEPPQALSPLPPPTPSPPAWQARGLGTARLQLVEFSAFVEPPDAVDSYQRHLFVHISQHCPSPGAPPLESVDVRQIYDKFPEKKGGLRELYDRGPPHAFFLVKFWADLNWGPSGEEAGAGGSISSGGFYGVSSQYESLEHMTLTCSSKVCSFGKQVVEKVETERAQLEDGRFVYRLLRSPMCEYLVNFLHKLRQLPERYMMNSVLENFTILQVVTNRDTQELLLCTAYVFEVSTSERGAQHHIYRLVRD

On to `COc1cnc(NS(C)(=O)=O)cc1/C=C/C1(F)CCC(C(F)(F)F)CC1` (stereo not drawn) [Compound 21, N-[4-[(E)-2-[1-fluoro-4-(trifluoromethyl)cyclohexyl]vinyl]-5-methoxy-2-pyridyl]methanesulfonamide], for which the 50% inhibitory concentration (IC50) worked out at 0.86 µM on TEAD2 and 0.63 µM on TEAD3.

Turning to `COc1ccc(NS(=O)(=O)C2CC2)cc1/C=C/c1ccc(Cl)cc1` [Compound 49, N-[3-[(E)-2-(4-chlorophenyl)vinyl]-4-methoxy-phenyl]cyclopropanesulfonamide], the half-inhibitory concentration (IC50) at TEAD2 was 0.75 µM; on TEAD3 it was 1.9 µM.

`COc1ncc(NS(C)(=O)=O)cc1/C=C/C1CC2(CC2)C1` [Compound 17, N-[6-methoxy-5-[(E)-2-spiro[2.3]hexan-5-ylvinyl]-3-pyridyl]methanesulfonamide]: the half-maximal inhibitory concentration (IC50) on TEAD2 came to 0.81 µM; on TEAD3, 1.8 µM.

On to `COc1ccc(C(=O)NC(C)C)cc1-c1ccc(C2CC2)cc1` [Compound 26, 3-(4-cyclopropylphenyl)-N-isopropyl-4-methoxy-benzamide], for which the half-inhibitory concentration (IC50) on TEAD2 was found to be 2 µM; on TEAD3 it was 1.7 µM.

As to `COc1ccc(NS(=O)(=O)C2CC2)cc1/C=C/Cc1ccccc1` [Compound 33, N-[4-methoxy-3-[(E)-3-phenylprop-1-enyl]phenyl]cyclopropanesulfonamide], the IC50 on TEAD2 was 0.84 µM; on TEAD3, 1.2 µM.

For `COc1ccc(C(N)=O)cc1/C=C/C1CCCCC1` [Compound 31, 3-[(E)-2-cyclohexylvinyl]-4-methoxy-benzamide], the values for the IC50 at TEAD2 and at TEAD3 were 0.78 µM and 0.97 µM, respectively.

For the compound `CS(=O)(=O)Nc1cnc(C2CC2)c(/C=C/C2CCC(F)(F)CC2)c1` [Compound 52, N-[6-cyclopropyl-5-[(E)-2-(4,4-difluorocyclohexyl)vinyl]-3-pyridyl]methanesulfonamide], the results for the half-inhibitory concentration (IC50) at TEAD2 and at TEAD3 were 1.6 µM and 13 µM, respectively.

With `COc1ncc(NS(C)(=O)=O)cc1/C=C/C1CC(C)(C)C1` [Compound 36, N-[5-[(E)-2-(3,3-dimethylcyclobutyl)vinyl]-6-methoxy-3-pyridyl]methanesulfonamide], the values for the 50% inhibitory concentration (IC50) on TEAD2 and on TEAD3 were 0.95 µM and 1.4 µM, respectively.

`COc1ccc(C(N)=O)cc1/C=C/Cc1ccccc1` [Compound 32, 4-methoxy-3-[(E)-3-phenylprop-1-enyl]benzamide]: the concentration for half-maximal inhibition (IC50) on TEAD2 is 0.61 µM; at TEAD3, 1.4 µM.

In the case of `COc1ncc(NS(C)(=O)=O)cc1/C=C/[C@H]1CC[C@H](C(F)(F)F)CC1` [Compound 16, N-[6-methoxy-5-[(E)-2-[4-(trifluoromethyl)cyclohexyl]vinyl]-3-pyridyl]methanesulfonamide], the IC50 on TEAD2 was 0.69 µM; at TEAD3, 1.2 µM.

For the compound `COc1ccc(NS(C)(=O)=O)cc1[C@H]1C[C@H](c2ccc(Cl)cc2)C1` (single isomer, unassigned) [Compound 7A], the IC50 was determined as 0.91 µM on TEAD2 and 1.7 µM at TEAD3.

In the case of `COc1ncc(NS(C)(=O)=O)cc1/C=C/C1CC(C(F)(F)F)C1` (racemic) [Compound 37, N-[6-methoxy-5-[rac-(E)-2-[3-(trifluoromethyl)cyclobutyl]vinyl]-3-pyridyl]methanesulfonamide], the IC50 was determined as 0.75 µM on TEAD2 and 1.3 µM on TEAD3.

As to `COc1ccc(NS(C)(=O)=O)cc1C1CC1C1CCCCC1` (single isomer, unassigned) [Compound 1B, N-(3-(2-Cyclohexylcyclopropyl)-4-methoxyphenyl)methanesulfonamide], the results for the IC50 at TEAD2 and on TEAD3 were 1 µM and 1.8 µM, respectively.

With `COc1cc(F)c(NS(=O)(=O)C2CC2)cc1/C=C/c1ccc(Cl)cc1` [Compound 10, N-[5-[(E)-2-(4-chlorophenyl)vinyl]-2-fluoro-4-methoxy-phenyl]cyclopropanesulfonamide], the IC50 came out at 1.1 µM on TEAD2 and 1.9 µM at TEAD3.

On to `COc1cnc(C(=O)NC[C@H](O)CO)cc1/C=C/C1CC2(CC2)C1` [Compound 43, (E)-N-(2,3-dihydroxypropyl)-5-methoxy-4-(2-(spiro[2.3]hexan-5-yl)vinyl)picolinamide], for which the IC50 worked out at 0.98 µM on TEAD2 and 1.7 µM at TEAD3.

The term IC50 denotes the midpoint of a concentration-inhibition curve. A low value points to greater potency in that assay.
